Experimental data taken from patent publication US20260216166A1, “COMPOUND FOR TREATMENT OF ERECTILE DYSFUNCTION” (Initiator Pharma A/S, priority 2023, published 2026).
“Also recorded” adds a separate entry of the source.

Assays:
diabetic db/db mice = test: Erectile responses in type 2 diabetic db/db mice; format: in vivo, mouse; settings: intravenous infusion 1 mg/kg, n=7, versus vehicle
Procedure: FIG. 1. Original traces show increased intracavernosal pressure induced by the cavernous nerve's electrical field stimulation (EFS). […] E-G) Frequency, duration, and magnitude of spontaneous erections after intravenous infusion of vehicle, IP2015 0.1 mg/kg, 1 mg/kg, or 10 mg/kg. The effect on EFS is reported in the supplementary data file. (H-J) Intravenous infusion of vehicle and IP2015 (1 mg/kg) in diabetic db/db mice. IP2015 increased H) frequency, I) duration and J) the magnitude of spontaneous erectile responses in db/db mice (n=7). The results are means±s.e.mean. *P<0.05 versus vehicle control.
To investigate the effects of IP2015 in a simple model of erectile dysfunction, before dissecting its underlying pharmacology in vivo, we assessed its effects in a type-2 diabetic mouse model. Type 2 diabetic db/db mice have decreased erectile function compared to normal C57BL/6 mice and heterozygous db/+ control mice.

[1] = test system: rat corpus cavernosum strips; test: Isometric tension of isolated rat corpus cavernosum strips
Procedure: For functional studies in corpus cavernosum strips, the penis was removed by cutting the crura corpora cavernosa at the point of adhesion to the lower pubic bone, and the corpora cavernosa were then dissected free. The penis was submerged immediately in ice-cold (4° C.) PSS. The tunica albuginea was carefully opened from its proximal extremity of the corpus cavernosum towards the penile shaft and the erectile tissue within the corpus cavernosum was microsurgically dissected free. Change in isometric tension of corpus cavernosum strips (0.5×0.5×3 mm) were investigated in a tissue organ bath system (750TOBS, Danish Myotechnology, Aarhus, Denmark). Silk ligatures were applied at both ends of the strip preparations, which were then suspended between two L-formed metal prongs in thermostatically controlled organ baths (5 ml, 37° C.) containing PSS aerated with a mixture of 5% CO2 in air (pH 7.4). The bath fluid was routinely changed every 20 min and replaced with fresh PSS, also kept at 37° C. During an equilibration period of 60 min, tension was adjusted until a mean stable tension of 1.2 mN was obtained, as described earlier.
To test the contractility of the preparations, they were exposed to a potassium physiological saline solution (KPSS) of 125 mM and phenylephrine (10^-6 M), after each contraction acetylcholine was administrated to check endothelium-dependent relaxations.
To investigate the effect of IP2015 on corpus cavernosum strips, the drug (10 9-3×10^-4 M) was administered either in preparations at baseline tension or contracted with phenylephrine (10^-6 M) in the absence or presence of L-NOARG (10 4 M), a NO synthase inhibitor, sildenafil (10^-7 M), a PDE5 inhibitor, a dopamine D1 receptor antagonist, SCH23390, and a dopamine D2 receptor antagonist, clozapine (10^-6 M). The effect of vehicle was also investigated.

sperm count and motility = test: Semen analysis after repeat single oral doses in male subjects with ED; format: in vivo, human; settings: 5 mg or 10 mg, four weekly doses; Day -7 versus Week 4
Procedure: (§1) On Day-7, and at the Week 1 (Day 1), Week 2, Week 3, Week 4 and Follow-up visits, all groups were asked to complete the IIEF-15 questionnaire. Group 2 was asked to complete a Visual Stimulation Assessment using a RigiScan Plus Monitor on Day-7, Week 1 (Day 1) and Week 4. Group 2 was also required to provide blood samples for pharmacokinetic assessment on Week 1 (Day 1) and Week 4. Group 3 was required to provide semen samples on Day-7 and Week 4.
(§2) Efficacy was assessed through the International Index of Erectile Function (IIEF)-15 questionnaire. The change from baseline in responses to questions of the IIEF-15 questionnaire, including questions regarding erectile function, orgasmic function, sexual desire, intercourse satisfaction and overall satisfaction domain scores, was determined at different time points of the study. RigiScan assessments during the stimulus assessment, and sperm count and motility by semen sample collection was used for efficacy evaluation. Safety was assessed through AE reporting, 12-lead ECG, vital signs, physical examinations and clinical laboratory evaluations. Pharmacokinetics was assessed by blood sampling.

[2] = Plasma concentrations after repeat single oral doses in male subjects with ED; format: in vivo, human; settings: 5 mg and 10 mg; Week 1 and Week 4
Procedure: as §1, §2

Structure (SMILES): COc1cc2ccc(OC3CC4CCC(C3)N4)cc2oc1=O (centres unmarked) [IP2015, 7-[(8-azabicyclo[3.2.1]octan-3-yl)oxy]-3-methoxy-chromen-2-one]
- frequency, duration, and magnitude of erectile responses (diabetic db/db mice): significantly increased the frequency, duration, and magnitude of erectile responses; also recorded: increased the number of erections
- relaxation of corpus cavernosum strips ([1]; added at basal tension, increasing concentrations): concentration-dependently induced relaxation; also recorded: induced concentration-dependent relaxations; also recorded: induces relaxations
- IP2015 relaxation in preparations with and without endothelium ([1]; corpus cavernosum strips, n=5): observed in preparations with endothelium but not in preparations without endothelium
- sperm count, motility, or morphology (sperm count and motility): did not have negative effects on sperm count, motility, or morphology
- relation of plasma concentrations to dose [2]: linear relation of plasma concentrations to dose
